In patent US12628826B2, “Fungicidal composition” (UPL Corporation Limited, priority 2020, dated 2026):

What was measured:
[1] = tested on: Aphanomyces euteiches; test: Potted plant trial, field pea, 2× rate of Aphanomyces infection (Example 2); settings: ipconazole 2.5, carboxin 66.7, metalaxyl 6.7 g ai/100 kg, combination 500 ml/100 kg; for Root rot damage: 29 DAP
Procedure: The control consisted of seed inoculated with Aphanomyces and used water as the seed treatment. The experiment was performed in a controlled environment growth cabinet.
Culture: A 3-day old culture of Aphanomyces euteiches (3 days is when growth has fully encompassed plate) was used for 5 mm inoculation plug source (each plate received one 5 mm plug and four seeds)×4 reps.
Experimental design: 4 reps of each treatment (including controls), with each replication represented by 5 planted seeds for a total of 20 seeds per treatment were performed. All treatments received inoculum. Each seed is placed in a solitary location of a plant tray/flat that has 50 plugs per flat. One flat contained 2 treatments, separated by 10 plugs (2 rows of 5). Treatments 1 and 6 (controls) shared the same flat. The plug flats were placed in a collection tray that was not perforated and all watering was done with tap water from bottom up.
Culture media: 3 day old cultures of A. euteiches were grown on CYP (corn meal agar+yeast extract+phosphate buffer), amended with wheat leaf sections were transferred to 100 ml sterile distilled water in 250 ml flasks and shaken at 100 rpm in the dark at 23° C. for 18 hours for zoospore production.
Inducing Aphanomyces infection: Zoospores were counted and adjusted to a concentration of 1×10^4 spores, and 5 mls of this suspension was pipetted to the base of each plant on 4 DAP and again on 11 DAP (days after planting). This amounted to 50000 zoospores applied to the base of each plant at each inoculation timing. This was called 2× rate. The experiment was conducted in a growth cabinet at 23° C./22° C., 16 hrs light/8 hours dak.-root washing/rating of root darkening took place at 29 DAP which was 18 days after the second inoculation event or 25 days after the first inoculation event.

[2] = tested on: Mycosphaerella pinodes and Ascochyta pinodella; test: Potted plant trial, pea, stem damage from seed borne root rot / ascochyta blight; settings: ipconazole 2.5, carboxin 66.7, metalaxyl 6.7 g ai/100 kg, combination 500 ml/100 kg

Compound	Root rot damage [1]	Plant height (cm) [1] [cm]	Seed emergence (%) [1] [%]	Stem damage [2] [a 0-3 index/scale]
CC1=C(C(=O)Nc2ccccc2)SCCO1 [Carboxin]	0.6 bc 0-5 index/scale	12.9	80.0	1.8
CC(C)C1CCC(Cc2ccc(Cl)cc2)C1(O)Cn1cncn1 (stereo not shown) [Ipconazole]	2.2 a 0-5 index/scale	12.3	85.0	–
COCC(=O)N(c1c(C)cccc1C)C(C)C(=O)OC (stereo not shown) [Metalaxyl]	0.7 bc 0-5 index/scale	12.2	80.0	–
